Laboratory results: ChEMBL document CHEMBL1201862, “PubChem BioAssay data set” (2004)
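In this assay, cells in 96-well plates receive the compound at five concentrations for 48 hours. Endpoints are linearly interpolated between the surrounding concentrations. GI50: concentration for 50% inhibition of growth.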 The source made the active and inactive calls. Cut-off read from the data, not from the text of the source: active = GI50 up to about 1.1 µM and inactive = higher.

Tests used:
Assay in all cases: NCI tumour cell line growth inhibition, 48 h
NCI-H522 = system: NCI-H522
NCI-H226 = system: NCI-H226
Malme-3M = system: Malme-3M
OVCAR-8 = system: OVCAR-8
COLO 205 = system: COLO 205
HL-60 = system: HL-60
RPMI-8226 = system: RPMI-8226
MOLT-4 = system: MOLT-4
SNB-19 = system: SNB-19
A549 = system: A549
SR = system: SR
SF-539 = system: SF-539
HOP-62 = system: HOP-62
HT-29 = system: HT-29
SN12C = system: SN12C
RXF 393 = system: RXF 393
UO-31 = system: UO-31
CAKI-1 = system: CAKI-1
SK-MEL-28 = system: SK-MEL-28
T47D = system: T47D

Measured: GI50

CCO/C=C/C(C)C1(C(=O)OCC)CCCCC1=O (stereo not drawn)
inactive: NCI-H522 > 100 µM | NCI-H226 > 100 µM | Malme-3M > 100 µM | OVCAR-8 > 100 µM | COLO 205 > 100 µM | HL-60 71.1 µM | RPMI-8226 84.1 µM | MOLT-4 > 100 µM | SNB-19 > 100 µM | A549 > 100 µM | SR > 100 µM | SF-539 > 100 µM | HOP-62 > 100 µM | HT-29 > 100 µM | SN12C > 100 µM | RXF 393 > 100 µM | UO-31 > 100 µM | CAKI-1 > 100 µM | SK-MEL-28 > 100 µM

Oc1ccc2c3c1OC1C(=NN=C4CCC5(O)C6Cc7ccc(O)c8c7C5(CCN6CC5CC5)C4O8)CCC4(O)C(C2)N(CC2CC2)CCC314 (stereo not drawn)
inactive: NCI-H522 21.4 µM | NCI-H226 > 100 µM | Malme-3M 19.8 µM | OVCAR-8 28.5 µM | COLO 205 19.4 µM | HL-60 16.4 µM | RPMI-8226 28.8 µM | MOLT-4 23.7 µM | SNB-19 52.7 µM | A549 20.5 µM | SR 26.7 µM | SF-539 27.1 µM | HOP-62 30.3 µM | HT-29 17.1 µM | SN12C > 41.3 µM | RXF 393 40 µM | UO-31 > 100 µM | CAKI-1 > 100 µM | SK-MEL-28 21.9 µM

Cc1nc(N(C(C)C)C(C)C)c(C(C)C)o1
inactive: NCI-H522 > 100 µM | NCI-H226 > 100 µM | Malme-3M > 100 µM | OVCAR-8 > 100 µM | COLO 205 > 100 µM | HL-60 > 100 µM | MOLT-4 > 100 µM | SNB-19 > 100 µM | T47D > 100 µM | A549 > 100 µM | SF-539 > 100 µM | HOP-62 > 100 µM | HT-29 > 100 µM | SN12C > 100 µM | RXF 393 > 100 µM | UO-31 > 100 µM | CAKI-1 > 100 µM | SK-MEL-28 > 100 µM

COc1ccc(OC)c(NC(=O)CCC/C(CC(=O)c2ccc(O)c(OC)c2)=N\Nc2ccc([N+](=O)[O-])cc2)c1
inactive: NCI-H522 45.9 µM | NCI-H226 > 100 µM | Malme-3M > 100 µM | OVCAR-8 28.2 µM | COLO 205 > 100 µM | HL-60 > 100 µM | RPMI-8226 > 100 µM | MOLT-4 > 100 µM | SNB-19 26.6 µM | A549 > 100 µM | SR > 100 µM | SF-539 57.7 µM | HOP-62 69.5 µM | HT-29 > 100 µM | SN12C > 100 µM | RXF 393 19 µM | UO-31 83 µM | CAKI-1 > 100 µM

NC1=NN(c2ccccc2)C(=O)C1C(=O)C(=O)Nc1nccs1 (stereo not drawn)
inactive: NCI-H522 > 100 µM | NCI-H226 > 100 µM | Malme-3M > 100 µM | OVCAR-8 > 100 µM | COLO 205 > 100 µM | HL-60 > 100 µM | RPMI-8226 > 100 µM | MOLT-4 > 100 µM | SNB-19 > 100 µM | A549 > 100 µM | SR > 100 µM | SF-539 > 100 µM | HOP-62 > 100 µM | HT-29 > 100 µM | SN12C > 100 µM | RXF 393 > 100 µM | UO-31 > 100 µM | CAKI-1 > 100 µM | SK-MEL-28 > 100 µM

COC(=O)C1=C(O)C(C(=O)OC)[C@]2(O)[C@@H](C(=O)OC)[C@H]1[C@H](C)[C@@H](c1ccccc1)[C@@H]2C(=O)OC (stereo partly drawn)
inactive: NCI-H522 18.9 µM | NCI-H226 78.9 µM | Malme-3M 42.2 µM | OVCAR-8 54.2 µM | COLO 205 77.3 µM | HL-60 26.4 µM | MOLT-4 85.9 µM | SNB-19 > 100 µM | T47D > 100 µM | A549 56.4 µM | SF-539 > 100 µM | HOP-62 > 100 µM | HT-29 > 100 µM | SN12C 66.4 µM | RXF 393 > 100 µM | CAKI-1 > 100 µM | SK-MEL-28 > 100 µM

CCCCCCCCCCCNC=O
inactive: NCI-H522 24.5 µM | NCI-H226 94.6 µM | Malme-3M 54 µM | OVCAR-8 58.1 µM | COLO 205 49.3 µM | HL-60 15.1 µM | RPMI-8226 28.1 µM | MOLT-4 22.6 µM | SNB-19 > 100 µM | T47D 39.2 µM | A549 51.3 µM | SF-539 > 100 µM | HOP-62 > 100 µM | HT-29 37.3 µM | SN12C 63.4 µM | RXF 393 48.8 µM | UO-31 33.8 µM | CAKI-1 33.3 µM | SK-MEL-28 68.5 µM

Cc1cc(Nc2ccc(NS(C)(=O)=O)cc2)c2c(ccc3[nH]ccc32)n1
inactive: NCI-H522 9.35 µM | NCI-H226 19.5 µM | Malme-3M 12.5 µM | OVCAR-8 22.9 µM | COLO 205 14.3 µM | RPMI-8226 20.6 µM | MOLT-4 2.77 µM | SNB-19 18.1 µM | T47D 3.5 µM | A549 33.3 µM | HOP-62 19.4 µM | HT-29 27.5 µM | SN12C 17.8 µM | UO-31 > 100 µM | CAKI-1 29.5 µM | SK-MEL-28 17.7 µM

O=c1c2cc(Br)ccc2oc2ccc(Br)cc12
inactive: NCI-H522 > 100 µM | NCI-H226 > 100 µM | Malme-3M > 100 µM | OVCAR-8 > 100 µM | COLO 205 > 100 µM | HL-60 > 100 µM | RPMI-8226 > 100 µM | MOLT-4 > 100 µM | SNB-19 > 100 µM | T47D 81.3 µM | A549 > 100 µM | SF-539 > 100 µM | HT-29 > 100 µM | SN12C > 100 µM | RXF 393 > 100 µM | UO-31 > 100 µM | CAKI-1 > 100 µM | SK-MEL-28 > 100 µM

O=C(NCCCN(CCCCN(CCCNC(=O)C(F)(F)F)CCCc1ccccc1)CCCc1ccccc1)C(F)(F)F
inactive: NCI-H522 1.78 µM | NCI-H226 10.4 µM | Malme-3M 1.75 µM | OVCAR-8 1.74 µM | COLO 205 1.56 µM | HL-60 2.93 µM | RPMI-8226 2.63 µM | MOLT-4 1.8 µM | SNB-19 2 µM | T47D 1.85 µM | A549 1.82 µM | SF-539 1.57 µM | HT-29 1.55 µM | SN12C 2.08 µM | RXF 393 1.3 µM | UO-31 1.26 µM | CAKI-1 1.94 µM | SK-MEL-28 1.64 µM

NS(=O)(=O)c1ccc(NS(=O)(=O)c2ccc(NC(=O)N(c3ccccc3)c3ccccc3)cc2)cc1
inactive: NCI-H522 30.5 µM | NCI-H226 > 100 µM | Malme-3M 27.3 µM | OVCAR-8 > 100 µM | COLO 205 > 100 µM | RPMI-8226 24.8 µM | MOLT-4 34 µM | SNB-19 > 100 µM | T47D 48 µM | A549 > 100 µM | HOP-62 52.8 µM | HT-29 57.1 µM | SN12C > 100 µM | RXF 393 21.9 µM | UO-31 > 100 µM | CAKI-1 67 µM | SK-MEL-28 > 100 µM
